Numbered stars: 1 amine (or outer) side, 2 acyl side, 3 side chain; on linkers, the order of the positions; unused ones are H or OH. Bridge positions count the residues as written; N and C are the ends. Square brackets hold non-standard residues; d marks the D form. Peptide text beside a SMILES is read from it. Trp(βS-Me,7-OMe) = COc1cccc2c([C@H](C)[C@H](N)C(=O)O)c[nH]c12; Trp(7-Cl) = N[C@@H](Cc1c[nH]c2c(Cl)cccc12)C(=O)O; X8 = O=C([C@@H]1C[C@@H](O)[C@H](N[*:1])C1)[*:2]; Phe(4-COOH) = N[C@@H](Cc1ccc(C(=O)O)cc1)C(=O)O; Trp(7-aza) = N[C@@H](Cc1c[nH]c2ncccc12)C(=O)O; X1 = O=C([C@@H]1CC[C@H](N[*:1])C1)[*:2]; X38 = CC(C)(CO)CN(CC(=O)[*:2])[*:1]; Pip(4-aza) = O=C(O)[C@@H]1CNCCN1; 4Pal = N[C@@H](Cc1ccncc1)C(=O)O; NMeE = CN[C@@H](CCC(=O)O)C(=O)O; Pip = O=C(O)[C@@H]1CCCCN1; αMeS = C[C@](N)(CO)C(=O)O; Nle = CCCC[C@H](N)C(=O)O; Nme = COCCNCC(=O)O; Sar = CNCC(=O)O
Experiments:
[1] = molecular target: T1, human TNFR1 extracellular domain (ECD) protein (Homo sapiens, UniProt P19438); test: SPR binding affinity to captured human TNFR1 ECD
T1 construct: HRV 3C protease cleavage site (C); 6His (C, cleaved yes); made in house; host or cells: Sf21 insect cells (baculovirus), secreted
T1 sequence (P19438 30-211): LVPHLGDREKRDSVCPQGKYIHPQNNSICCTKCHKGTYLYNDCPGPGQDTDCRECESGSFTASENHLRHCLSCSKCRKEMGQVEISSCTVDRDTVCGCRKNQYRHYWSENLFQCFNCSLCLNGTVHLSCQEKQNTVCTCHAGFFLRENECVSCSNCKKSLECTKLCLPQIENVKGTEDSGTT
Procedure: (§1) B. Procedure for Binding Affinity and Selectivity measured by SPR
(§2) Affinity and selectivity for hTNFR1 and TNFR2 was determined using SPR. Human TNFR1 or TNFR2 genes (extracellular domain only) were synthesized with a C-terminal Avi-tag, HRV 3C protease cleavage site followed by a 6His-tag for affinity purification. The final gene product was cloned into pBAC™-1 vector (Millipore Sigma) for expression testing in insect cells. Constructs were transfected into Sf21 cells for baculovirus generation followed by protein expression analysis in Sf21 and Tni cell lines. Large scale expression in Sf21 cells was performed using baculovirus infected insect cells (BIICs) infected at a MOI=2.0 grown for 72 h. Target proteins secreted into the media were harvested via centrifugation and concentrated using diafiltration. TNFR was purified by immobilized metal ion affinity chromatography (IMAC) using a Ni-Sepharose HisTrap™ column (Cytiva™). Isolated TNFR had His tag removed using HRV 3C protease followed by additional purification using Ni-NTA chromatography. Biotinylation was performed on Ni-NTA flow-through fractions concentrated to 45 μM and treated with BirA ligase (1:100, μg/μg ratio) in 50 mM Tris pH 7.5, 150 mM NaCl, 50 μM biotin, 10 mM magnesium acetate, 10 mM ATP at 4° C. for 20 h. Final purification of biotin-TNFR and buffer exchange into 20 mM HEPES pH 7.5, 150 mM NaCl was performed using a HiLoad® Superdex® 200 26/60 column (Cytiva™). Highly purified protein was aliquoted and stored at −80° C.
(§3) The SPR assay uses a Cytiva™ 8K or 8K+ biosensor instrument to measure the kinetics of peptide analytes binding to captured human TNFR1 extracellular domain (ECD) protein; peptide analytes are also evaluated for any off-target binding to human TNFR2 ECD protein in parallel. Recombinant human TNFR1 ECD and human TNFR2 ECD proteins, biotinylated via engineered C-terminal avi-tags, are immobilized to a regenerable streptavidin biosensor chip surface (Cytiva™ Biotin CAPture kit, Series S; cat. #28920234). Peptide analytes binding to immobilized human TNFR1 ECD protein and their subsequent dissociation are conducted in a buffer of 10 mM HEPES pH 7.4, 150 mM NaCl, 3 mM EDTA, 0.05% P20,2% DMSO under laminar flow conditions and measured in response units (RU), which are directly proportional to the accumulated mass on the surface of the biosensor chip; the biosensor chip surface is regenerated via Cytiva™ proprietary methods between the evaluation of each peptide analyte. […] The SPR assay determines the association and dissociation rate constants, kon and koff, for each peptide analyte and, from these values, calculates the binding affinity, […] reported in Table 2.

human TNFR2 ECD protein = molecular target: T2, human TNFR2 ECD protein (Homo sapiens, UniProt P20333); test: SPR off-target binding (selectivity) to human TNFR2 ECD
T2 construct: HRV 3C protease cleavage site (C); 6His (C, cleaved yes); made in house; host or cells: Sf21 insect cells (baculovirus), secreted
T2 sequence (P20333 23-257): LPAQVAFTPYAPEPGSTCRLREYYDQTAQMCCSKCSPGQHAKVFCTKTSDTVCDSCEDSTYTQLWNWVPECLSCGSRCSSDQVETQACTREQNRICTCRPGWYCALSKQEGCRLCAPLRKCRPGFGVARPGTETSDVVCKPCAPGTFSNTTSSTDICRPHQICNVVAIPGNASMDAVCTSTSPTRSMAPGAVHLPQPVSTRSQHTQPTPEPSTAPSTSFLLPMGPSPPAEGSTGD
Procedure: as §1, §2, §3

[2] = molecular target: T3, TNFα-induced NF-κB signal transduction pathway (TNFR1 signaling) in THP-1 cells (Homo sapiens, UniProt P19438); test: THP-1 Lucia NF-κB reporter cell assay, inhibition of TNFα-induced NF-κB signaling; assay type: cell-based; conditions: THP-1 NF-κB Lucia reporter cells, 10 ng/mL TNFα, 16-18 h, secreted luciferase; read-out: THP-1 IC50
T3 sequence (P19438 30-455): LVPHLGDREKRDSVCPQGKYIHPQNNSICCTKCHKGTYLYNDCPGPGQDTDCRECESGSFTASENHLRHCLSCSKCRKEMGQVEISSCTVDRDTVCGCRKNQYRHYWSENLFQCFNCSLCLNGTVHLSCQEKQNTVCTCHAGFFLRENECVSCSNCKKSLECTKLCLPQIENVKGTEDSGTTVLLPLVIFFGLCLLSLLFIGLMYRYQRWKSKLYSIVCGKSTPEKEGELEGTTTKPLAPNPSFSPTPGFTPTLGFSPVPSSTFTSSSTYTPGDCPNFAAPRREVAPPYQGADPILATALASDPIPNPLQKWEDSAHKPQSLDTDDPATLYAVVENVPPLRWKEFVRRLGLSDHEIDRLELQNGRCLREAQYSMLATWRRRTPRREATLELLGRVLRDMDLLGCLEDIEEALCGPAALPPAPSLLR
Summary of the method: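 THP-1 Lucia NF-κB cells, 20k/well, no selection antibiotics; peptide pre-inc 1 h 37 °C; + recombinant human TNFα 10 ng/mL final; o.n.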

CCCC[C@@H]1NC(=O)[C@@H]2CC[C@@H](C2)NC(=O)[C@H]([C@@H](C)c2c[nH]c3c(OC)cccc23)NC(=O)CN(C)C(=O)[C@H](Cc2ccc(O)cc2)NC(=O)[C@H](Cc2ccc(C(=O)O)cc2)NC(=O)[C@](C)(CO)NC(=O)[C@H](Cc2c[nH]c3c(Cl)cccc23)NC(=O)[C@H](Cc2ccncc2)NC(=O)[C@H](CC(N)=O)NC(=O)CN(CCOC)C(=O)[C@H](Cc2c[nH]c3ccccc23)NC(=O)[C@@H]2CNCCN2C(=O)[C@H](Cc2ccncc2)NC1=O [SEQ ID NO. 82] (cyclo([4Pal][Trp(7-Cl)][αMeS][Phe(4-COOH)]Y[Sar][Trp(βS-Me,7-OMe)][X1][Nle][4Pal][Pip(4-aza)]W[Nme]N))
Kd [1]: 0.07 nM | Kd (human TNFR2 ECD protein): > 1000 nM

CCCC[C@@H]1NC(=O)[C@@H]2C[C@@H](O)[C@@H](C2)NC(=O)[C@H]([C@@H](C)c2c[nH]c3c(OC)cccc23)NC(=O)CN(C)C(=O)[C@H](Cc2ccc(O)cc2)NC(=O)[C@H](Cc2ccc(C(=O)O)cc2)NC(=O)[C@](C)(CO)NC(=O)[C@H](Cc2c[nH]c3c(Cl)cccc23)NC(=O)[C@H](Cc2ccncc2)NC(=O)[C@H](CC(N)=O)NC(=O)[C@H](CCC(=O)O)N(C)C(=O)[C@H](Cc2c[nH]c3ccccc23)NC(=O)[C@@H]2CNCCN2C(=O)[C@H](Cc2ccncc2)NC1=O [SEQ ID NO. 34] (cyclo([4Pal][Trp(7-Cl)][αMeS][Phe(4-COOH)]Y[Sar][Trp(βS-Me,7-OMe)][X8][Nle][4Pal][Pip(4-aza)]W[NMeE]N))
Kd (human TNFR2 ECD protein): > 1000 nM | IC50 [2]: 0.7 nM

CCCC[C@@H]1NC(=O)CSC[C@@H](C(N)=O)NC(=O)[C@H]([C@@H](C)c2c[nH]c3c(OC)cccc23)NC(=O)CN(C)C(=O)[C@H](Cc2ccc(O)cc2)NC(=O)[C@H](Cc2ccc(C(=O)O)cc2)NC(=O)[C@](C)(CO)NC(=O)[C@H](Cc2c[nH]c3c(Cl)cccc23)NC(=O)[C@H](Cc2ccncc2)NC(=O)[C@H](CC(N)=O)NC(=O)CN(CC(C)(C)CO)C(=O)[C@H](Cc2c[nH]c3ncccc23)NC(=O)[C@@H]2CCCCN2C(=O)[C@H](Cc2ccncc2)NC1=O [SEQ ID NO. 61] ({CH2CO}-[Nle][4Pal][Pip][Trp(7-aza)][X38]N[4Pal][Trp(7-Cl)][αMeS][Phe(4-COOH)]Y[Sar][Trp(βS-Me,7-OMe)]C-NH2; thioether N-14)
Kd (human TNFR2 ECD protein): > 1000 nM | IC50 [2]: 3.6 nM
